In ChEMBL document CHEMBL4330116, “Harzianoic acids A and B, new natural scaffolds with inhibitory effects against hepatitis C virus” (Bioorg Med Chem, 2019):

Experiments:
[1] = Selectivity index, ratio of CC50 for human Huh7.5 cells to EC50 for antiviral activity against HCV genotype 2a JFH/JC1 infected in human Huh7.5 cells; type: toxicity, cell-based; conditions: read-out: Ratio CC50/EC50
[2] = Cytotoxicity against human Huh7.5 cells after 72 hrs by MTT assay; type: cell-based
[3] = biological target: T1, CD81 antigen (Homo sapiens) (UniProt P60033); test: Binding affinity to CD81 (unknown origin) assessed as association rate constant by surface plasmon resonance assay
T1 sequence (whole entry): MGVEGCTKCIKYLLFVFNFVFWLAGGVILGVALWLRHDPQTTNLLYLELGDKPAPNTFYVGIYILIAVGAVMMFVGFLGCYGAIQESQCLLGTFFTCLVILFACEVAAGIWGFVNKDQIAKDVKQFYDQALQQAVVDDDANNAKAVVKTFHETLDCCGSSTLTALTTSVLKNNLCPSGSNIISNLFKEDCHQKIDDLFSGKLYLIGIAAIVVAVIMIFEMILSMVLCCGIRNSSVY

[4] = system: Hepatitis C virus; test: Antiviral activity against HCV pseudoparticles infected in human Huh7.5 cells infected with HCV pseudoparticles expressed in 293T cells with plasmid encoding HCV E1, E2, envelope and Vpr deficient HIV vector carrying luciferase reporter gene inserted into Nef position assessed as inhibition of pseudoparticle entry after 72 hrs by luciferase reporter gene assay; type: functional, organism-based, Hepacivirus hominis; conditions: for inhibition: Hepacivirus hominis
[5] = biological target: T2, CD81 antigen (Homo sapiens, UniProt P60033); test: Binding affinity to CD81 (unknown origin) by surface plasmon resonance assay
T2 sequence (P60033 whole entry): T1 sequence (whole entry)

[6] = system: Hepatitis C virus; test: Antiviral activity against HCV genotype 2a JFH/JC1 infected in human Huh7.5 cells assessed as inhibition of viral RNA replication after 72 hrs by qRT-PCR analysis; type: functional, organism-based, Hepacivirus hominis; conditions: subtype 2a JFH/JC1, Huh7.5, 72 h
[7] = biological target: T1, CD81 antigen (Homo sapiens); test: Binding affinity to CD81 (unknown origin) assessed as disruption of interaction between CD81 the HCV envelope protein E2 at 5 uM by surface plasmon resonance assay relative to untreated control

SMILES	selectivity ratio [1]	CC50 at 72 h [2]	Ka [3]	IC50 [4]	inhibition [4]	Kd [5]	EC50 [6]	Ratio [7]
CCC[C@H](NC(=O)[C@@H]1[C@H]2CCC[C@H]2CN1C(=O)[C@@H](NC(=O)[C@@H](NC(=O)c1cnccn1)C1CCCCC1)C(C)(C)C)C(=O)C(=O)NC1CC1 [TELAPREVIR]	491	26.5 µM						
C/C(=C\CC[C@]1(C)[C@@H](C(=O)O)C[C@H]1[C@](C)(O)C(=O)O)C(=O)O	4	74.3 µM	3.81e+07 M⁻¹ s⁻¹	42.9 µM	Dose-dependent effect	0.0665 µM	20.4 µM	
CC(C)OC(=O)[C@H](C)NP(=O)(OC[C@H]1O[C@@H](n2ccc(=O)[nH]c2=O)[C@](C)(F)[C@@H]1O)Oc1ccccc1 (stereo not given in full)	> 3120	> 200 µM					0.06 µM	
CC(=O)[C@@H]1C[C@H](C(=O)O)[C@@]1(C)CC/C=C(\C)C(=O)O	3	75.3 µM	5.33e+06 M⁻¹ s⁻¹	35.5 µM	Dose-dependent effect	0.0378 µM	24.5 µM	33
